Measurements as given in EP4793274A1, “SALT AND CRYSTAL FORM OF KIF18A INHIBITOR COMPOUND, PREPARATION METHOD THEREFOR AND USE THEREOF” (Hubei Bio-Pharmaceutical Industrial Technological Institute …, priority 2023, dated 2025).

Key:
[1] = Dynamic solubility at 37 °C in H2O, SGF, FaSSIF and FeSSIF (HPLC concentration, pH of filtrate, XRPD of residual solid); assay type: physicochemical; settings: listed as Crystal form B of p-toluenesulfonate; for S: solubility: feeding concentration 10 mg/mL; for FC: crystal form change: XRPD of residual solid; for pH: pH of filtrate
Experimental: 0.82 mL of glacial acetic acid and 1.18 g of NaCl were added to a 100 mL volumetric flask and completely dissolved by addition of purified water.
The solubility of each sample in H2O, SGF, FaSSIF, and FeSSIF was determined at different time points (1 h, 2 h, 4 h, and 24 h). […] 137-156. […] Table C-2. Summary of dynamic solubility test results at 37 °C

[2] = Hygroscopicity by dynamic vapor sorption (DVS); assay type: physicochemical; settings: 25 °C/80% RH
Experimental: Dynamic vapor sorption (DVS) curves were acquired on a DVS IntrInsic from Surface Measurement Systems (SMS). The relative humidity at 25 °C was corrected with the deliquescence points of LiCl, Mg(NO3)2, and KCl. Table A-5. DVS test parameters
The percentage changes in mass of the samples when the humidity changed (0% RH to 95% RH) at a constant temperature of 25 °C were collected. 157-166.

[3] = Solid state stability (XRPD and HPLC purity); assay type: physicochemical
Text: 167-171. […] Table C-3. Summary of solid state stability evaluation

[4] = Solubility at room temperature in water, SGF and FaSSIF (HPLC concentration, pH of filtrate, XRPD of residual solid); settings: listed as Crystal form B of p-toluenesulfonate; for S: solubility: feeding concentration 1 mg/mL; for pH: pH of filtrate
Experimental: 100 mg of NaCl and 50 mg of Triton X-100 were weighed into a 50 mL volumetric flask and then completely dissolved by addition of purified water. 816 µL of 1 M hydrochloric acid was added, and the pH was adjusted to 1.8 with 1 M hydrochloric acid or 1 M NaOH solution. The mixed solution was brought to the volume by addition of purified water.
340 mg of anhydrous NaH2PO4 and 620 mg of NaCl were weighed into a 100 mL volumetric flask, and then completely dissolved by addition of purified water. 55.44 µL of a 50% NaOH solution was then added, and the pH was adjusted to 6.5 with 1 M hydrochloric acid or 1 M NaOH solution. The mixed solution was brought to the volume by addition of purified water. Subsequently, 110 mg of SIF powder was weighed into a 50 mL volumetric flask and completely dissolved in the solution described above, and the mixed solution was brought to the volume.
Solids at a feeding concentration of 1 mg/mL (calculated based on free crystal form) were rotationally mixed with corresponding vehicles at room temperature. […] After sampling at each time point, the samples were centrifuged (at 10000 rpm) and filtered (through a 0.22 µm PTFE filter head), the HPLC concentrations and pH values of the filtrates were determined, and the centrifuged solid samples were subjected to XRPD analysis.

[5] = 80 °C/sealed, 1 day, listed as Crystal form B of p-toluenesulfonate

Cc1cc(-c2cnn(-c3ccc(NS(=O)(=O)CCO)cc3N3CCC4(CC3)CC4)c2)nc(N2CCC(F)(F)CC2)n1 [crystal form B of the p-toluenesulfonate]
S: solubility ([1]; FaSSIF, 1 h, 60 min): 61.4 µg/mL
S: solubility ([1]; FaSSIF, 2 h, 120 min): 51.7 µg/mL
S: solubility ([1]; FaSSIF, 4 h, 240 min): 22.2 µg/mL
S: solubility ([1]; FaSSIF, 24 h, 1440 min): 16.3 µg/mL
S: solubility ([1]; FeSSIF, 1 h, 60 min): 182.8 µg/mL
S: solubility ([1]; FeSSIF, 2 h, 120 min): 166.5 µg/mL
S: solubility ([1]; FeSSIF, 4 h, 240 min): 159.9 µg/mL
S: solubility ([1]; FeSSIF, 24 h, 1440 min): 81.4 µg/mL
S: solubility ([1]; H2O, 1 h, 60 min): 2.7 µg/mL
S: solubility ([1]; H2O, 2 h, 120 min): 2.5 µg/mL
S: solubility ([1]; H2O, 4 h, 240 min): 1.9 µg/mL
S: solubility ([1]; H2O, 24 h, 1440 min): 1.5 µg/mL
S: solubility ([1]; SGF, 1 h, 60 min): 56.8 µg/mL
S: solubility ([1]; SGF, 2 h, 120 min): 45.6 µg/mL
S: solubility ([1]; SGF, 4 h, 240 min): 23.3 µg/mL
S: solubility ([1]; SGF, 24 h, 1440 min): 18.1 µg/mL
FC: crystal form change ([1]; FaSSIF, 1 h): Yes
FC: crystal form change ([1]; FaSSIF, 2 h): Yes
FC: crystal form change ([1]; FaSSIF, 4 h): Yes
FC: crystal form change ([1]; FaSSIF, 24 h): Yes
FC: crystal form change ([1]; FeSSIF, 1 h): Yes
FC: crystal form change ([1]; FeSSIF, 2 h): Yes
FC: crystal form change ([1]; FeSSIF, 4 h): Yes
FC: crystal form change ([1]; FeSSIF, 24 h): Yes
FC: crystal form change ([1]; H2O, 1 h): Yes
FC: crystal form change ([1]; H2O, 2 h): Yes
FC: crystal form change ([1]; H2O, 4 h): Yes
FC: crystal form change ([1]; H2O, 24 h): Yes
FC: crystal form change ([1]; SGF, 1 h): Yes
FC: crystal form change ([1]; SGF, 2 h): Yes
FC: crystal form change ([1]; SGF, 4 h): Yes
FC: crystal form change ([1]; SGF, 24 h): Yes
pH ([1]; FaSSIF, 1 h): 2.92
pH ([1]; FaSSIF, 2 h): 2.84
pH ([1]; FaSSIF, 4 h): 2.74
pH ([1]; FaSSIF, 24 h): 2.68
pH ([1]; FeSSIF, 1 h): 4.68
pH ([1]; FeSSIF, 2 h): 4.66
pH ([1]; FeSSIF, 4 h): 4.68
pH ([1]; FeSSIF, 24 h): 4.74
pH ([1]; H2O, 1 h): 2.17
pH ([1]; H2O, 2 h): 2.17
pH ([1]; H2O, 4 h): 2.09
pH ([1]; H2O, 24 h): 1.95
pH ([1]; SGF, 1 h): 1.64
pH ([1]; SGF, 2 h): 1.63
pH ([1]; SGF, 4 h): 1.60
pH ([1]; SGF, 24 h): 1.59
vapor sorption values [2]: 0.171%
HPLC results Relative to starting (%) ([3]; 25 °C/60% RH/open, 1 week): 100.0%
HPLC results Purity (area%) ([3]; 25 °C/60% RH/open, 1 week, listed as Crystal form B of p-toluenesulfonate): 98.27 area%
HPLC results Relative to starting (%) ([3]; 40 °C/75% RH/open, 1 week): 100.0%
HPLC results Purity (area%) ([3]; 40 °C/75% RH/open, 1 week, listed as Crystal form B of p-toluenesulfonate): 98.25 area%
HPLC results Purity (area%) [3, 5]: 98.28 area%
HPLC results Relative to starting (%) [3, 5]: 100.0%
HPLC results Purity (area%) ([3]; Starting, listed as Crystal form B of p-toluenesulfonate): 98.28 area%
Crystal form ([3]; XRPD after 25 °C/60% RH/open, 1 week, listed as Crystal form B of p-toluenesulfonate): Crystal form B of p-toluenesulfonate
Crystal form ([3]; XRPD after 40 °C/75% RH/open, 1 week, listed as Crystal form B of p-toluenesulfonate): Crystal form B of p-toluenesulfonate
Crystal form ([3]; XRPD after 80 °C/sealed, 1 day, listed as Crystal form B of p-toluenesulfonate): Crystal form B of p-toluenesulfonate
S: solubility ([4]; FaSSIF, 2 h, 120 min): 85.8 µg/mL
S: solubility ([4]; FaSSIF, 24 h, 1440 min): 37.8 µg/mL
S: solubility ([4]; H2O, 24 h, 1440 min): 0.1 µg/mL
S: solubility ([4]; SGF, 2 h, 120 min): 41.3 µg/mL
S: solubility ([4]; SGF, 24 h, 1440 min): 19.7 µg/mL
pH ([4]; FaSSIF, 2 h): 6.5
pH ([4]; FaSSIF, 24 h): 6.4
pH ([4]; H2O, 2 h): 3.4
pH ([4]; H2O, 24 h): 2.8
pH ([4]; SGF, 2 h): 1.9
pH ([4]; SGF, 24 h): 1.8
